# From US11944624B2, “Peptide and small molecule agonists of EphA and their uses” (CASE WESTERN RESERVE UNIVERSITY, priority 2017, dated 2024)
# Key:
# [1] = system: DU145 and PC-3 cell xenografts; conditions: previously shown, independent of α1-adrenoreceptor; cited from earlier work
# EphA2 = EphA2 (Homo sapiens, UniProt P29317); assay: EphA2 internalization in U373-A2 cells (immunofluorescence); format: cell-based; parameters: expressed in transfected cells; conditions: 60 min, DZ 50 μM, ephrin-A1-Fc 1 μg/ml
# Method: Cells were plated in 24-well dishes at a density of 100,000 cells/well and grown for 24 hours prior to stimulation with appropriate compounds and ephrins for the given amounts of time. Compounds were prepared in DMSO at 500 times the final concentrations and 0.2% DMSO was used as vehicle control. Following treatment, cells were lysed directly in SDS Gel Loading Buffer and immunoblotted as described previously. Immunoprecipitation and immunofluorescence staining was performed as described. For immunoprecipitation, 300,000 cells/well were plated in 6-well dishes and lysed in modified RIPA Buffer (20 mM Tris-HCl pH 7.4, 20 mM NaF, 150 mM NaCl, 10% glycerol, 0.1% SDS, 0.5% DCA, 2 mM EDTA, 1% Triton X-100) following treatment. Either 10 μg of ephrin-A1-Fc, or […] of EphA2 mouse monoclonal antibody (Clone D7, Millipore) were used, and mouse IgG was used as a negative control for EphA2 IP.
# Similar to other receptor tyrosine kinases, activation of the EphA2 receptor by its ligand, ephrin-A1, results in receptor internalization and eventual degradation. […] This was first performed using the U373 glioma cell line engineered to overexpress EphA2.
# EphA1 = target: T1, EphA1 (Homo sapiens, UniProt P21709); assay: EphA1 activation in HEK 293 cells overexpressing EphA1; format: cell-based; conditions: HEK 293 overexpressing EphA1, same concentrations
# T1 construct: expressed in transfected cells; host or cells: HEK 293
# T1 sequence (P21709 26-976): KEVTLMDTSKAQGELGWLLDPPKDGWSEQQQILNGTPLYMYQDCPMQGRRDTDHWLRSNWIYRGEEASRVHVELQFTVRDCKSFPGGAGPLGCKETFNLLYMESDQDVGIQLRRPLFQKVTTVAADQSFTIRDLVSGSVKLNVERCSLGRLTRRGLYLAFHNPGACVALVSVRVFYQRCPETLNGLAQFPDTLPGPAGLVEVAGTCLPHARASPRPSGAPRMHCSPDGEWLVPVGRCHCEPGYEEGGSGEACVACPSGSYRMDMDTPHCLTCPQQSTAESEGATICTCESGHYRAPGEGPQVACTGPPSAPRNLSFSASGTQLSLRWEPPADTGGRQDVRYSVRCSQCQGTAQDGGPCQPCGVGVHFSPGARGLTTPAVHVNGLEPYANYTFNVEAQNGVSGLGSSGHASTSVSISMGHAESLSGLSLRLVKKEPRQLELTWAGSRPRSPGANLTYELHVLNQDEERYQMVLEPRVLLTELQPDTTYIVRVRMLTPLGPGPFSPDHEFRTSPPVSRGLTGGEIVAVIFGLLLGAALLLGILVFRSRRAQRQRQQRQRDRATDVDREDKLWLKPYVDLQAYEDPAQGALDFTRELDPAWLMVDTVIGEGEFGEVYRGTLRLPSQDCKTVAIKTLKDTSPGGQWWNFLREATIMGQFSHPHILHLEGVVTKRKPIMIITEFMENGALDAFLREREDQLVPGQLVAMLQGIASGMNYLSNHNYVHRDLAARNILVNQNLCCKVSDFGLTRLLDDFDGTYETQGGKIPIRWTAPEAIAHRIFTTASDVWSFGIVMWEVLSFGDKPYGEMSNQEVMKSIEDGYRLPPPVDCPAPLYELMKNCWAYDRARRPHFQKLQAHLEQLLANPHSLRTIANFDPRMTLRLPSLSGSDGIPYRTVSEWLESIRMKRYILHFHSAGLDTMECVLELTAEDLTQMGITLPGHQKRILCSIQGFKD
# Method: (§2) Cells were plated in 24-well dishes at a density of 100,000 cells/well and grown for 24 hours prior to stimulation with appropriate compounds and ephrins for the given amounts of time. Compounds were prepared in DMSO at 500 times the final concentrations and 0.2% DMSO was used as vehicle control. Following treatment, cells were lysed directly in SDS Gel Loading Buffer and immunoblotted as described previously. […] For immunoprecipitation, 300,000 cells/well were plated in 6-well dishes and lysed in modified RIPA Buffer (20 mM Tris-HCl pH 7.4, 20 mM NaF, 150 mM NaCl, 10% glycerol, 0.1% SDS, 0.5% DCA, 2 mM EDTA, 1% Triton X-100) following treatment. Either 10 μg of ephrin-A1-Fc, or 4 mg of EphA2 mouse monoclonal antibody (Clone D7, Millipore) were used, and mouse IgG was used as a negative control for EphA2 IP. […] For this purpose, HEK 293 cell lines overexpressing EphA1, EphA2, EphA3, EphA4, and EphB3 kinases were utilized.
# [2] = system: MDA-MB-231, A172-A2 and PC3-DAB2IP KD cells; assay: Chemotactic cell migration toward hepatocyte growth factor (HGF); format: cell-based; conditions: all three cell lines
# Excerpt: (§1) One of the well-established functions of Eph receptors is the ligand-dependent repulsive guidance of cell migration. As a ligand-mimicking agonist for EphA2, doxazosin is expected to activate EphA2 on tumor cells and repulse migrating tumor cells in vitro. […] The inhibitory effects were observed when doxazosin was presented either in the bottom chamber, or in both top and bottom chambers in the Transwell assay system. […] Therefore, doxazosin can recapitulate a key function attributed to its native ligands, i.e., negative regulation of cell migration.
# PC3-DAB2IP KD cells = assay: Haptotactic cell migration toward fibronectin, PC3-DAB2IP KD; format: cell-based, human; conditions: 4 hours
# Excerpt: as §1, with “vitro. To test this possibility, we first investigated the effects of doxazosin on integrin-mediated haptotactic cell migration toward fibronectin in a modified Boyden chamber cell migration assay.” for “vitro.”
# [3] = system: MDA-MB-231 breast cancer cells; assay: Haptotactic cell migration toward fibronectin, MDA-MB-231; format: cell-based; conditions: MDA-MB-231, 4 hours
# Excerpt: as §1, with “vitro. To test this possibility, we first investigated the effects of doxazosin on integrin-mediated haptotactic cell migration toward fibronectin in a modified Boyden chamber cell migration assay.” for “vitro.”
# EphA4 = target: T2, EphA4 (Homo sapiens, UniProt P54764); assay: EphA4 activation in HEK 293 cells overexpressing EphA4; format: cell-based; conditions: HEK 293 overexpressing EphA4, 60 minutes
# T2 construct: expressed in transfected cells; host or cells: HEK 293
# T2 sequence (P54764 20-986, species assumed): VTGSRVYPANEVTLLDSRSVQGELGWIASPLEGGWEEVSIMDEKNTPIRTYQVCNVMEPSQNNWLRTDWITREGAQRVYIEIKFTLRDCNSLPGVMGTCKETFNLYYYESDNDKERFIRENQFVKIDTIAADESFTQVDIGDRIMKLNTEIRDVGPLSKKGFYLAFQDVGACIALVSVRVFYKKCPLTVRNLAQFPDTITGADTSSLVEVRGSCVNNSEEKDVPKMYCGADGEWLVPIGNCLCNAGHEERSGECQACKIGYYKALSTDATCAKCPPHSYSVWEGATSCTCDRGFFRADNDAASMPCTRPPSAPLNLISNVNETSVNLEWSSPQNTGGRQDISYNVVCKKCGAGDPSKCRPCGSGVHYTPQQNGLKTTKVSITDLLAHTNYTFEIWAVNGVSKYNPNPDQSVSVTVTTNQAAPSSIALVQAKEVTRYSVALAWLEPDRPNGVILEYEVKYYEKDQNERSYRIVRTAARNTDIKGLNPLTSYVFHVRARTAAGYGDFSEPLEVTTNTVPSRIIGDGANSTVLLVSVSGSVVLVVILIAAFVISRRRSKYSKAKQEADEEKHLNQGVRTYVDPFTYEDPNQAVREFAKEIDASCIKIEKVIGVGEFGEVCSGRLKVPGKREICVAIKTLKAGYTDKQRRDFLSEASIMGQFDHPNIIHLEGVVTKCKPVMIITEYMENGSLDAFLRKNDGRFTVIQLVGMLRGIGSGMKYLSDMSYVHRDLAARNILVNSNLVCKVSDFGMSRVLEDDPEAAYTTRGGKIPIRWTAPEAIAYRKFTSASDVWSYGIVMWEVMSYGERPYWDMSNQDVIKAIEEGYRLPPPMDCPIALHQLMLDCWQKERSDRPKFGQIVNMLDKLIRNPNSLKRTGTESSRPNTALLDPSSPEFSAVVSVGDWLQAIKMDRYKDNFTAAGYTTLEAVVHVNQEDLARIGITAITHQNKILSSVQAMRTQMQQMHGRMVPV
# Method: as §2
# Chain of EphA2 (P29317 24-976): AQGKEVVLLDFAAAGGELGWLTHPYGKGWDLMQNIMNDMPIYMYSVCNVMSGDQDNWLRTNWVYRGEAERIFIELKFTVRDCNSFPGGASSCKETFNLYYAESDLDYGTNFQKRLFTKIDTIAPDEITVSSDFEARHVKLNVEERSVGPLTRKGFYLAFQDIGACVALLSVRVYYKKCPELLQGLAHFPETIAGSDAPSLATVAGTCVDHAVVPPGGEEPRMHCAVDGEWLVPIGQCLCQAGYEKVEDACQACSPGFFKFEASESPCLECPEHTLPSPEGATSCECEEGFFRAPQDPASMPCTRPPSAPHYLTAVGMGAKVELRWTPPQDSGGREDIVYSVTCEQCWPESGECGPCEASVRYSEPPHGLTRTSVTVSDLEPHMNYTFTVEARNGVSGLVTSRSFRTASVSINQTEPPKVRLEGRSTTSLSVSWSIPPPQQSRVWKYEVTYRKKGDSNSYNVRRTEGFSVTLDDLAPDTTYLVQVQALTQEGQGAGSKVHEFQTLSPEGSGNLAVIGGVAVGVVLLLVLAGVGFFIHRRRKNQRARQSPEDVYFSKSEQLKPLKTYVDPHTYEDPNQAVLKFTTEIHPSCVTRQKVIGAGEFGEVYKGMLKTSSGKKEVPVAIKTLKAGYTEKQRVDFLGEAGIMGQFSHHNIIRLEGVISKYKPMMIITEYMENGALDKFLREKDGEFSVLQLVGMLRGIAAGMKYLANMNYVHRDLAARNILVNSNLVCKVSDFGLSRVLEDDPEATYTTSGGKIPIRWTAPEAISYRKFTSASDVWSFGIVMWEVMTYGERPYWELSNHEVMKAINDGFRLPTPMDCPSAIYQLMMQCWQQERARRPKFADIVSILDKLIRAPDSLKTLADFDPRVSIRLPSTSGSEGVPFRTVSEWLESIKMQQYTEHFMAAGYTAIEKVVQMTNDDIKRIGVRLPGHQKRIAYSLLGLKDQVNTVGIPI
smiles,measurement,setting,value
"COc1cc2nc(N3CCN(C(=O)C4COc5ccccc5O4)CC3)nc(N)c2cc1OC (stereo not shown) [Doxazosin, 2-[4-(2,3-Dihydro-1,4-benzodioxine-2-carbonyl)piperazin-1-yl]-6,7-dimethoxyquinazolin-4-amine]",subcutaneous xenograft growth,[1],moderately decrease subcutaneous growth of DU145 and PC-3 cell xenografts
same,EphA2 internalization,EphA2,stimulated significant EphA2 internalization
same,EphA1 activation,EphA1,no activation of EphA1
same,chemotactic cell migration toward HGF,[2],dose-dependent inhibition
same,haptotactic cell migration toward fibronectin,PC3-DAB2IP KD cells,dose-dependent inhibition of cell migration
same,haptotactic cell migration toward fibronectin,[3],dose-dependent inhibition of cell migration
same,EphA4 kinase activation,EphA4,activated both EphA2 and EphA4 kinases following a similar dose-response relationship
